Test results published in patent EP0528172A1, “(2-Alkyl-3-pyridyl)methylpiperazine derivatives as PAF antagonists” (J. URIACH & CIA. S.A., priority 1991, dated 1993).
Like-named read-outs stand apart in the source and are kept apart here.

Assays:
mortality induced by PAF = test: Mortality induced by PAF in mice (p.o.); format: in vivo, Swiss mice; conditions: Mus musculus, oral administration 1 h before 100 mcg/kg PAF-C₁₈ + 1 mg/kg propanolol i.v., examined 2 h after PAF, dose inhibiting mortality in a 50%, read-out: ID₅₀
Protocol: Mortality induced by PAF in mice (p.o.).
This test was performed according to the procedure described by Young et al. (Prostaglandins, 1985, 30, 545-551). Groups of 10 Swiss mice weighing from 22 to 26 g were used. 100 mcg/kg of PAF-C₁₈ and 1 mg/kg of propanolol were administered through a lateral tail vein 1 h after the oral administration of the compounds to be tested (20 mL/kg). Animals were examined 2 h after the injection of PAF. The percentage of the inhibition of the mortality induced by PAF was determined for all the tested compounds in comparison with the control group. The results are expressed as ID₅₀ values, that is to say, the amount of compound by weight of animal (dose) needed to inhibit the mortality induced by PAF in a 50%.

[1] = test system: hypotension induced by PAF; test: Inhibition of the hypotensive effect induced by PAF in normotense rats; format: in vivo, Sprage Dawley rats; conditions: for ED50: Rattus norvegicus, iv, read-out: ID₅₀
Protocol: Inhibition of the hypotensive effect induced by PAF in normotense rats.
Male Sprage Dawley rats, of 180-220 g of weight, anesthetized with sodium pentobarbital (50 mg/Kg, i.p. 1 mL/100 g) have been used. In order to measure the average arterial pressure, a polyethylene catheter is introduced into the carotid artery. The arterial pressure is recorded with the help of a transducer connected with a R611 Beckman polygraph. The tested compounds are administered through the femoral vein 3 min. before the injection of PAF (0.5 mcg/Kg, i.v.) . The inhibition of the hypotension induced by PAF of the different compounds is expressed as ID₅₀, that is to say, the amount of compound by weight of animal (dose) needed to inhibit the hypotension induced by PAF in a 50%.

[2] = test system: platelet aggregation induced by PAF; test: Inhibition of platelet aggregation induced by PAF (platelet rich plasma, Born nephelometric technique); format: cell-based, New Zealand albino rabbits; conditions: rabbit platelet rich plasma, PAF C₁₈ 16 nM final, concentration needed to inhibit platelet aggregation in a 50%, read-out: IC₅₀
Protocol: Inhibition of platelet aggregation induced by PAF.
The blood is obtained by cardiac puncture of male New Zealand albino rabbits (between 2 and 2.5 Kg of weight) and coagulation is prevented by adding 1 part of 3.16% sodium citrate dihydrate in 9 parts of blood. The platelet rich plasma (PRP) is prepared by blood centrifugation at 250xg for 10 min. at 4°C and it is diluted with platelet poor plasma (PPP) obtained by additional centrifugation at 3000xg for 10 min. The amount of platelets is adjusted to […]. The platelet aggregation induced by PAF (C₁₈, prepared in our laboratory) (16 nM, final) is determined by the Born nephelometric technique (J. Physiol., 1962, 162, 67) using an aggregometer Chrono-log 500. The activities of the inhibitors are expressed as IC₅₀ values, that is to say the concentration of the drug needed to inhibit the platelet aggregation in a 50%.

[3] = anesthetized male rats, compound via femoral vein 3 min before PAF (0.5 mcg/Kg, i.v.), dose inhibiting PAF hypotension in a 50%

Compound | ED50 (mortality induced by PAF) | ED50 [1, 3] | IC50 ([2]; Oryctolagus cuniculus) | ID₅₀ [1, 3] | IC50 [2] | ED50 [1]
Cc1ncccc1C(C#N)N1CCN(C(=O)CC(NC(=O)c2cccnc2)c2ccccc2)CC1 (stereo not drawn) [Compound 60, 1-[3-(N-(3-pyridylcarbonyl)amino)-3-phenylpropionyl]-4-[(2-methyl-3-pyridyl)cyanomethyl]piperazine] | 0.41 mg/kg | 0.029 mg/kg | 8.9 nM |  |  | 
Cc1ncccc1C(C#N)N1CCN(C(=O)CC(NC(=O)N(C)O)c2ccccc2)CC1 (stereo not drawn) [Compound 78, 1-[3-(N-(N'-hydroxy-N'-methylcarbamoyl)amino)-3-phenylpropionyl]-4-[(2-methyl-3-pyridyl)cyanomethyl]piperazine] |  |  |  | 0.055 mg/Kg i.v. | 82 nM | 
CC(=O)N(O)C(CC(=O)N1CCN(C(C#N)c2cccnc2C)CC1)c1ccccc1 (stereo not drawn) [Compound 75, 1-[3-(N-acetyl-N-hydroxyamino)-3-phenylpropionyl]-4-[(2-methyl-3-pyridyl)cyanomethyl]piperazine] | 0.061 mg/kg | 0.027 mg/kg | 62 nM |  |  | 
CCOC(=O)NC(CC(=O)N1CCN(C(C#N)c2cccnc2C)CC1)c1ccccc1 (stereo not drawn) [Compound 42, 1-[3-(N-(Ethoxycarbonyl)amino)-3-phenylpropionyl]-4-[(2-methyl-3-pyridyl)cyanomethyl]piperazine] | 0.23 mg/kg | 0.025 mg/kg | 14 nM |  |  | 
Cc1ncccc1C(C#N)N1CCN(C(=O)C=C(c2ccccc2)c2ccccc2)CC1 (stereo not drawn) [Compound 5, 1-(3,3-Diphenylpropenoyl)-4-[(2-methyl-3-pyridyl)cyanomethyl]piperazine] |  | 0.038 mg/kg | 26 nM |  |  | 
Cc1ncccc1C(C#N)N1CCN(C(=O)CNC(c2ccccc2)c2ccccc2)CC1 (stereo not drawn) [Compound 22, 1-[N-(Diphenylmethyl)aminoacetyl]-4-[(2-methyl-3-pyridyl)cyanomethyl]piperazine] | 0.3 mg/kg | 0.021 mg/kg | 85 nM |  |  | 
Cc1ncccc1C(C#N)N1CCN(C(=O)CC(C)(O)c2ccccc2)CC1 (stereo not drawn) [Compound 9, 1-(3-Phenyl-3-hydroxybutanoyl)-4-[(2-methyl-3-pyridyl)cyanomethyl]piperazine] |  |  | 36 nM |  |  | 
Cc1ncccc1C(C#N)N1CCN(C(=O)CC(c2ccccc2)c2ccccc2)CC1.Cl.Cl (stereo not drawn) [Compound 1, 1-(3,3-Diphenylpropionyl)-4-[(2-methyl-3-pyridyl)cyanomethyl]piperazine, dihydrochloride] |  | 0.015 mg/kg | 18 nM |  |  | 
Cc1ncccc1C(C#N)N1CCN(C(=O)CC(NCc2ccccc2)c2ccccc2)CC1 (stereo not drawn) [Compound 15, 1-[3-(N-Benzylamino)-3-phenylpropionyl]-4-[(2-methyl-3-pyridyl)cyanomethyl]piperazine] | 1.2 mg/kg | 0.035 mg/kg | 9.1 nM |  |  | 
Cc1ncccc1C(C#N)N1CCN(C(=O)CC(c2ccccc2)N2CCOC2=O)CC1 (stereo not drawn) [Compound 68, 1-[3-(2-oxo-3-oxazolidinyl)-3-phenylpropionyl]-4-[(2-methyl-3-pyridyl)cyanomethyl]piperazine] | 0.3 to 1 mg/kg | 0.029 mg/kg | 63 nM |  |  | 
Cc1ncccc1C(C#N)N1CCN(C(=O)CCC(c2ccccc2)c2ccccc2)CC1 (stereo not drawn) [Compound 18, 1-(4,4-Diphenylbutanoyl)-4-[(2-methyl-3-pyridyl)cyanomethyl]piperazine] |  | 0.028 mg/kg | 80 nM |  |  | 
Cc1ncccc1C(C#N)N1CCN(C(=O)CC(NC(=O)Oc2ccccc2)c2ccccc2)CC1 (stereo not drawn) [Compound 44, 1-[3-(N-(Phenoxycarbonyl)amino)-3-phenylpropionyl]-4-[(2-methyl-3-pyridyl)cyanomethyl]piperazine] |  |  | 16 nM |  |  | 0.036 mg/kg
Cc1ncccc1C(C#N)N1CCN(C(=O)[C@H](C)NC(c2ccccc2)c2ccccc2)CC1 (stereo partly drawn) [Compound 28, 1-[(S)-2-(N-(Diphenylmethyl)amino)propionyl]-4-[(2-methyl-3-pyridyl)cyanomethyl]piperazine] | 1.6 mg/kg | 0.025 mg/kg | 13 nM |  |  | 
Cc1ncccc1C(C#N)N1CCN(C(=O)CC(Nc2ccccc2)c2ccccc2)CC1 (stereo not drawn) [Compound 74, 1-[3-(N-phenylamino)-3-phenylpropionyl]-4-[(2-methyl-3-pyridyl)cyanomethyl]piperazine] | 0.27 mg/kg | 0.042 mg/kg | 28 nM |  |  | 
CC(=O)NC(CC(=O)N1CCN(C(C#N)c2cccnc2C)CC1)c1ccccc1 (stereo not drawn) [Compound 17, 1-[3-(N-acetylamino)-3-phenylpropionyl]-4-[(2-methyl-3-pyridyl)cyanomethyl]piperazine] | 0.09 mg/kg | 0.035 mg/kg | 38 nM |  |  | 
CNC(=O)N(O)C(CC(=O)N1CCN(C(C#N)c2cccnc2C)CC1)c1ccccc1 (stereo not drawn) [Compound 77, 1-[3-(N-methylcarbamoyl-N-hydroxyamino)-3-phenylpropionyl]-4-[(2-methyl-3-pyridyl)cyanomethyl]piperazine] |  | 0.045 mg/kg | 3000 nM |  |  | 
Cc1ncccc1C(C#N)N1CCN(C(=O)CC(O)(c2ccccc2)C(F)(F)F)CC1 (stereo not drawn) [Compound 11, 1-(3-Phenyl-3-hydroxy-3-(trifluoromethyl)propionyl)-4-[(2-methyl-3-pyridyl)cyanomethyl]piperazine] | 0.44 mg/kg | 0.013 mg/kg | 14 nM |  |  | 
Cc1ncccc1C(C#N)N1CCN(C(=O)CC(c2ccccc2)N2CCCC2=O)CC1 (stereo not drawn) [Compound 66, 1-[3-(2-oxo-1-pyrrolidinyl)-3-phenylpropionyl]-4-[(2-methyl-3-pyridyl)cyanomethyl]piperazine] | 0.13 mg/kg | 0.026 mg/kg | 29 nM |  |  | 
Cc1ncccc1C(C#N)N1CCN(C(=O)CC(c2ccccc2)N(O)C(N)=O)CC1 (stereo not drawn) [Compound 76, 1-[3-(N-carbamoyl-N-hydroxyamino)-3-phenylpropionyl]-4-[(2-methyl-3-pyridyl)cyanomethyl]piperazine] |  |  | 69 nM |  |  | 
Cc1ncccc1C(C#N)N1CCN(C(=O)COC(c2ccccc2)c2ccccc2)CC1 (stereo not drawn) [Compound 36, 1-[(Diphenylmethoxy)acetyl]-4-[(2-methyl-3-pyridyl)cyanomethyl]piperazine] |  | 0.048 mg/kg | 42 nM |  |  | 
COC(=O)NC(CC(=O)N1CCN(C(C#N)c2cccnc2C)CC1)c1ccccc1 (stereo not drawn) [Compound 41, 1-[3-(N-(Methoxycarbonyl)amino)-3-phenylpropionyl]-4-[(2-methyl-3-pyridyl)cyanomethyl]piperazine] | 0.044 mg/kg | 0.015 mg/kg | 41 nM |  |  | 
Cc1ncccc1C(C#N)N1CCN(C(=O)CC(O)(c2ccccc2)c2ccccc2)CC1 (stereo not drawn) [Compound 4, 1-(3,3-Diphenyl-3-hydroxypropionyl)-4-[(2-methyl-3-pyridyl)cyanomethyl]piperazine] | 0.69 mg/kg | 0.039 mg/kg | 17 nM |  |  | 
Cc1ncccc1C(C#N)N1CCN(C(=O)CC(NC(=O)c2ccccc2)c2ccccc2)CC1 (stereo not drawn) [Compound 16, 1-[3-(N-Benzoylamino)-3-phenylpropionyl]-4-[(2-methyl-3-pyridyl)cyanomethyl]piperazine] |  | 0.056 mg/kg | 9.1 nM |  |  | 
Cc1ncccc1C(C#N)N1CCN(C(=O)CCNC(c2ccccc2)c2ccccc2)CC1 (stereo not drawn) [Compound 34, 1-[3-(N-(Diphenylmethyl)amino)propionyl]-4-[(2-methyl-3-pyridyl)cyanomethyl]piperazine] | 0.62 mg/kg | 0.044 mg/kg | 110 nM |  |  | 
